Results as given in patent US8710063B2, “Purine compounds used as CB2 agonists” (priority 2010, dated 2014).
Structures can show the parent of a compound that is named as a salt.

Key:
[1] = test system: male Lewis rats; test: Monoiodoacetate (MIA) model, incapacitance testing; assay type: in vivo; settings: dosed once, rat MIA model
Procedure: Monoiodoacetate (MIA) Model
For all studies male Lewis rats of approximately 8 weeks of age at the time of MIA injection are used to measure pain in the MIA model. The rats are housed in groups of 2 or 3 per cage and maintained in a constant temperature and on a 12 hour light/12 hour dark cycle. Animals have free access to food and water at all times except during data collection.
In the standard MIA model the right knees of each rat are injected with 0.3 mg MIA in 50 ul of saline and the left knees with 50 ul of saline. Pain is measured at varying times after MIA injection (not normally before 10 day post MIA injection) using incapacitance testing. This measures the difference in hind paw weight bearing between the MIA and saline injected knees, and each measurement is the average of 3 separate measurements each measured over 1 second.
For studies with CB2 agonists rats are randomized into dose groups (n=5 or 6) and then dosed once with the compound under investigation. Dosing is staggered by 15 minutes for each rat and at a predetermined time post-dose (usually 2 hours), pain measured using incapacitance testing. Studies are routinely run with 4 groups, vehicle (1% carboxy methyl cellulose in water plus 0.25% polysorbate 80) and 3 compound groups which can be either single compounds at a single dose or the same compound at 3 doses. Results are reported as the difference in weight bearing between saline and MIA injected knees and statistical comparisons are made between vehicle treated and compound treated animals to assess the effect of compounds on knee pain in the model.

[2] = test system: Male Harlan Sprague-Dawley rats; test: Animal model of dural plasma protein extravasation (PPE); assay type: in vivo; settings: 10 mg/kg, 2 hours post po dose, rat; saline controls approximately 2.0, full prevention approximately 1.0
[3] = target: T1, human CB2 receptor (Homo sapiens, UniProt P34972); test: Displacement of 3H-CP55940 from human CB2 receptors; assay type: binding; settings: displacement of 3H-CP55940, human CB2 membrane homogenates
T1 construct: expressed in transfected cells
T1 sequence (P34972 whole entry): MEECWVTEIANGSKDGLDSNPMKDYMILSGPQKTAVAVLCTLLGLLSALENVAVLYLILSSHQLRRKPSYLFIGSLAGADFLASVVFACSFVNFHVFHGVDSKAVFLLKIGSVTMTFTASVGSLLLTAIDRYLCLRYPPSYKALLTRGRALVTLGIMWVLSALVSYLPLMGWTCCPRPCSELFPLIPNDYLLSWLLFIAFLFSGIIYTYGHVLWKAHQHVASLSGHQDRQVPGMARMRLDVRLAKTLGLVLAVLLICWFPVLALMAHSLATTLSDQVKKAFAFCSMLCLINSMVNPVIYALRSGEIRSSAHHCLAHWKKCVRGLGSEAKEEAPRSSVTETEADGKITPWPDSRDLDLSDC
Procedure: (§1) Displacement of 3H-CP55940 from Human and Rat CB2 Receptors
(§2) The methods of Felder et al. (Mol. Pharmaocol. 48:443-450, 1995) were utilized with minor modifications. Specifically, membrane homogenates from cells stably or transiently expressing the human or rat CB2 receptor were washed by centrifugation and diluted into a 50 mM Tris HCl (pH 7.4), 5 mM MgCl2, 2.5 mM EDTA, and 0.1% BSA buffer. Specific binding of 3H-CP55940 was defined with 1 μM CP55940. The ability of compounds to displace specific 3H-CP55940 binding was tested over a range of concentrations in the Tris, MgCl2, EDTA, BSA buffer in the presence of 1% dimethyl sulfoxide by incubating at room temperature for 90 minutes in a volume of 300 μl. Unifilter 96-well microplates pretreated with 0.5% polyvinylpyrrolidone, 0.1% polysorbate 20 in water were washed three times with cold Tris buffer. The reaction mixture was then transferred to the filter plate immediately before terminating the incubation by rapid filtration and three 200 μl washes with cold Tris buffer. After the filter plates dried, microscint 20 was added to each well, the plate sealed and counted for determination of disintegrations per minute. The displacement curves were graphed and the resulting Ki values determined utilizing Graphpad Prism.

[4] = target: T2, rat CB2 receptor (Rattus norvegicus, UniProt Q9QZN9); test: Displacement of 3H-CP55940 from rat CB2 receptors; assay type: binding; settings: displacement of 3H-CP55940, rat CB2 membrane homogenates
T2 construct: expressed in transfected cells
T2 sequence (Q9QZN9 1-360): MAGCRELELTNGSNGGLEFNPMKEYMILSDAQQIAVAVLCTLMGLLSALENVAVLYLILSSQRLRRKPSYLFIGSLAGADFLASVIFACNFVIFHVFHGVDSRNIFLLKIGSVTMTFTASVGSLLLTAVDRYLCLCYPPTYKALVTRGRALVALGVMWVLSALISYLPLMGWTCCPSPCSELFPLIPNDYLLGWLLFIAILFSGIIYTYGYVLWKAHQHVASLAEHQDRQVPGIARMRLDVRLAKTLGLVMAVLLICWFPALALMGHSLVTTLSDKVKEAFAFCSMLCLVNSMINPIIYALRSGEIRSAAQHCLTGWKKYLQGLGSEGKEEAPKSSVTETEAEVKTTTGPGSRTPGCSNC
Procedure: as §1, §2

[5] = target: T3, hCB1-CHO membranes (Homo sapiens, UniProt P21554); test: CB1 in vitro functional assay, SPA based GTP-γ-35S binding, agonist mode (whole membrane capture); assay type: biochemical; settings: normalized to methanandamide, read-out: relative EC50 value for CB1
T3 construct: expressed in transfected cells; host or cells: CHO cells
T3 sequence (P21554 whole entry): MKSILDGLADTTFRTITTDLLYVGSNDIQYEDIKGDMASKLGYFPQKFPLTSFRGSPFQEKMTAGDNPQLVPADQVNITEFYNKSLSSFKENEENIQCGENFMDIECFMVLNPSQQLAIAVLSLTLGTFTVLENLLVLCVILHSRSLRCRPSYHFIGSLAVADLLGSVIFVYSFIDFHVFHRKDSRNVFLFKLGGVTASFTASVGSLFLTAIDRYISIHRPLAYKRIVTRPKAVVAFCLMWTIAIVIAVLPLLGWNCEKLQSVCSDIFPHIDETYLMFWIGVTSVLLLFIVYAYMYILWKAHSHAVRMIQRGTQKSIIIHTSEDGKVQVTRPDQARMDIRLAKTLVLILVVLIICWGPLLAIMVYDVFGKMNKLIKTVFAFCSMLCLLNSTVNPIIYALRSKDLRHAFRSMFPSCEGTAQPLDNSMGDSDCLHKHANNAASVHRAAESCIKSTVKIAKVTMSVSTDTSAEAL
Procedure: (§3) CB1 and CB2 In Vitro Functional Assays
(§4) Exemplified compounds are tested in agonist mode using a SPA based GTP-γ-^35S binding assay. All assay components are prepared in assay buffer made up of 20 mM HEPES, 100 mM NaCl, 5 mM MgCl2, (pH 7.4 at room temperature). Semi-log compound dilutions are done in assay buffer containing BSA (final 0.125%). GTP-γ^35-S binding is measured in a 96 well format using a whole membrane capture technique for the CB1 assay and modifications of an antibody capture technique previously described (DeLapp et al. J Pharmacol Exp Ther 289:946-955, 1999) for the CB2 assay. All incubations are done at room temperature.
hCB1-CHO membranes, GDP (1 uM final), and saponin (10 ug/mL final) are added to assay buffer and homogenized. Diluted compounds, GTP-γ-^35S (500 nM final) and membranes are added to the assay plate and incubated for 30 minutes. Then 1 mg/well Wheatgerm Agglutinin SPA bead is added, and the plates are sealed, vortexed, and incubated for an additional hour. Plates are then centrifuged at 700×g for 10 minutes and counted for 1 minute per well using a scintillation counter.
To analyze data, first subtract background from all wells. Determine percent agonist efficacy by normalizing agonist/inverse agonist dose response data to a full agonist (methanandamide) response. Analyze the data using a 4-parameter logistic reduced fit with Activity Base and XLFit3.

[6] = target: T4, hCB2-Sf9 membranes (Homo sapiens, UniProt P34972); test: CB2 in vitro functional assay, SPA based GTP-γ-35S binding, agonist mode (antibody capture); assay type: biochemical; settings: normalized to methanandamide, read-out: relative EC50 value for CB2
T4 construct: expressed in transfected cells; host or cells: Sf9 insect cells
T4 sequence (P34972 whole entry): as the sequence (P34972 whole entry) above
Procedure: as §3, §4
hCB2-Sf9 membranes and GDP (1 uM final) are added to assay buffer and homogenized. Diluted compounds and membranes are added to the assay plate and pre-incubated for 15 minutes. This is followed by addition of GTP-γ-^35S ([…] final) and another 35 minute incubation. Next a mixture containing Nonidet P40 detergent (0.2% final), anti-Gi antibody (final dilution of 1:362), and 1.25 mg anti-rabbit antibody scintillation proximity assay beads are added. The plates are then sealed, vortexed, and incubated for an additional 2 hours before centrifuging and counting as for CB1.
To analyze data, first subtract background from all wells. […]

| Structure (SMILES) | pain versus vehicle (difference in hind paw weight bearing) ([1]; dose 0.3 mg/kg) | pain versus vehicle (difference in hind paw weight bearing) ([1]; dose 1 mg/kg) | extravasation ratio (stimulated side over unstimulated side of dura) [2] | Ki [3] | Ki [4] | EC50 [5] | EC50 [6] | further results |
| --- | --- | --- | --- | --- | --- | --- | --- | --- |
| Cc1nc(N2CCN(C)CC2)c2nc(-c3ccccc3Cl)n(CCS(C)(=O)=O)c2n1.Cl [Example 1, 8-(2-Chlorophenyl)-6-(4-methylpiperazin-1-yl)-2-methyl-9-(2-methylsulfonylethyl)purine hydrochloride] | reduce pain versus vehicle | reduce pain versus vehicle | 1.12 | – | – | – | – | – |
| CCN1CCN(c2nc(C)nc3c2nc(-c2ccccc2Cl)n3CCS(C)(=O)=O)CC1 [Example 2, 8-(2-Chlorophenyl)-6-(4-ethylpiperazin-1-yl)-2-methyl-9-(2-methylsulfonylethyl)purine hydrochloride] | – | – | – | 28.4 nM | 48.7 nM | 5560 nM | 17.2 nM | – |
| CCN1CCN(c2nc(C)nc3c2nc(-c2ccccc2Cl)n3CCNC(C)=O)CC1.Cl [Example 7, N-[2-[8-(2-Chlorophenyl)-6-(4-ethylpiperazin-1-yl)-2-methyl-purin-9-yl]ethyl]acetamide hydrochloride] | – | – | 1.18 | – | – | – | – | – |
| COC(=O)NCCn1c(-c2ccccc2Cl)nc2c(N3CCN(CCF)CC3)nc(C)nc21 [Example 16, Methyl N-[2-[8-(2-chlorophenyl)-6-[4-(2-fluoroethyl)piperazin-1-yl]-2-methyl-purin-9-yl]ethyl]carbamate hydrochloride] | – | – | – | – | – | > 100000 nM | 13.5 nM | – |
| CC(=O)NCCn1c(-c2ccccc2Cl)nc2c(N3CCN(CCF)CC3)nc(C)nc21.Cl [Example 17, N-[2-[8-(2-chlorophenyl)-6-[4-(2-fluoroethyl)piperazin-1-yl]-2-methyl-purin-9-yl]ethyl]acetamide hydrochloride] | reduce pain versus vehicle | reduce pain versus vehicle | – | – | – | – | – | pain versus vehicle (difference in hind paw weight bearing) ([1]; dose 0.1 mg/kg): reduce pain versus vehicle |
| Cc1nc(N2CCN(C)CC2)c2nc(-c3ccccc3Cl)n(CC#N)c2n1 [Example 3, 2-[8-(2-Chlorophenyl)-2-methyl-6-(4-methylpiperazin-1-yl)purin-9-yl]acetonitrile hydrochloride] | – | – | – | 27.8 nM | 12.6 nM | – | – | – |
